A word on the pIC50: it is the negative decadic logarithm of the IC50, by convention in mol/L. One may read the pKi as −log10 of the Ki, conventionally taken in molar units. Lower therefore signals a large Ki.

One assay addresses Glutamate NMDA receptor. In words: Tested for the ability to inhibit [3H]MK-801 binding to NMDA receptor of rat cortical membranes in the presence of glutamate (1 uM).
Assay [1] concerns the target Glutamate receptor ionotropic, NMDA 1 (Rattus norvegicus, UniProt P35439). In words: Tested for the ability to displace [3H]glycine, by greater than 50%, from NMDA receptor of rat cortical membranes at a dose of 10 uM.

pIC50, pKi: −log10 of the molar value. Some results are limits rather than exact numbers.

Take `O=C(O)c1cc2c(Cl)cc(Cl)cc2[nH]1`: the pIC50 on Glutamate NMDA receptor was 5.23. Further, the pKi in assay [1] was 6.01.

Turning to `O=C(O)Cc1cc2ccccc2nc1C(=O)O`, the pIC50 at Glutamate NMDA receptor was below 4.00. This compound also had a pKi in assay [1] below 4.00.

Turning to `O=C(O)c1cc(O)c2c(Cl)cc(Cl)cc2n1`, the negative logarithm of the IC50 (pIC50) on Glutamate NMDA receptor is 6.07.

Regarding `O=C(O)Cc1c(C(=O)O)[nH]c2cc(Cl)cc(Cl)c12`, the pIC50 on Glutamate NMDA receptor is 5.48. In addition, the pKi in assay [1] was 6.47.

Take `O=C(O)Cc1c(C(=O)O)nc2cc(Cl)cc(Cl)c2c1O`: at Glutamate NMDA receptor, the pIC50 is 5.45. Besides, the pKi in assay [1] is 6.19.

On to `O=C(O)Cc1c(C(=O)O)nc2ccccc2c1O`, for which the pIC50 on Glutamate NMDA receptor was 4.08. Also, in assay [1], the pKi is 4.83.

Take `O=C(O)CCc1c(C(=O)O)[nH]c2cc(Cl)cc(Cl)c12`: the pKi in assay [1] is 6.85.

With `O=C(O)CCc1c(C(=O)O)nc2cc(Cl)cc(Cl)c2c1O`, the pIC50 at Glutamate NMDA receptor was 3.99. Also, the pKi in assay [1] is 5.15.

These data come from ChEMBL document CHEMBL1127100, “Structure-activity relationships of a series of glycine antagonists related to 5,7-dichlorokynurenic acid and 3-(2-carboxy-6-chloroindol-3-yl)acetic acid” (Bioorg Med Chem Lett, 1993).
